The text below walks through data of patent US11247985B2, “Phenyl indole allosteric inhibitors of P97 ATPase” (University of Pittsburgh—Of the Commonwealth System of …, priority 2015, dated 2022).

Sequence of p97 ATPase WT (P55072 whole entry): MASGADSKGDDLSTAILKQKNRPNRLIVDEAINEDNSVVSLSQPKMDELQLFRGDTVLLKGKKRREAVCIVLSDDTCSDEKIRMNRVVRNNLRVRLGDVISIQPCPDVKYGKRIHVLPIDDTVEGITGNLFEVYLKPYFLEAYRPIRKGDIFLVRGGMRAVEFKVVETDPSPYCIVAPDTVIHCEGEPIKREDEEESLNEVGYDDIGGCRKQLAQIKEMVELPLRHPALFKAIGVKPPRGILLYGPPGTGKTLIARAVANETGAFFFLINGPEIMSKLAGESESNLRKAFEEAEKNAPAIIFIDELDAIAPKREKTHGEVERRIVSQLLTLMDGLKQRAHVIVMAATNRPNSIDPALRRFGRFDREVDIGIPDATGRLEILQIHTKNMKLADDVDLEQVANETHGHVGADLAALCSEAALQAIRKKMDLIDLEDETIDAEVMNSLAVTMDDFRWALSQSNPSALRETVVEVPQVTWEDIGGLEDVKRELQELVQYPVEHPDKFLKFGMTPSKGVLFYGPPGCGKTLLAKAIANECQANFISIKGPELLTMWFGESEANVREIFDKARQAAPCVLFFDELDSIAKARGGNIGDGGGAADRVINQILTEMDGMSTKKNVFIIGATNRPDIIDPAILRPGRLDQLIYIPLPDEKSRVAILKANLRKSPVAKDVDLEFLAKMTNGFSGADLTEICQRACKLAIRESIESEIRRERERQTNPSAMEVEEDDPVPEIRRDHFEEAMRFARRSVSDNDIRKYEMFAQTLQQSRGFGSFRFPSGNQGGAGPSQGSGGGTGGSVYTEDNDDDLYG

The experiment addresses p97 ATPase WT (Homo sapiens (Human), UniProt P55072). Description: p97 ADP-Glo assay. The experiment is classed as biochemical. The following applies: Table 3; read-out: ADPGlo IC50. An excerpt: ADP-Glo™ (Promega Corp.) is a bioluminescent, homogeneous assay that measures ADP formed from a biochemical reactions. Because of its high sensitivity, the assay is suitable for monitoring enzyme activities at very early substrate conversions requiring very low amount of enzymes.
The ADP-Glo assay can be conducted as described in Chou, T.-F.; Bulfer, S. L.; Weihl, C.
On the technique in general: ADP-Glo first removes unused ATP, then detects ADP through luciferase.
Broadly, the IC50 is the midpoint of a concentration-inhibition curve. In the case of `CC(C)N1CCN(CCNC2CCN(c3cccc(-c4cc5cc(F)c(F)cc5[nH]4)c3)CC2)CC1`, the half-maximal inhibitory concentration (IC50) was 330 nM.

`FC(F)(F)C(c1ccccc1)N1CCN(CCNC2CCN(c3cccc(-c4cc5ccccc5[nH]4)c3)CC2)CC1` (stereo not drawn): the IC50 was 17000 nM.

Take `FC1(F)CCN(CCNC2CCN(c3cccc(-c4cc5ccccc5[nH]4)c3)CC2)CC1`: the IC50 is 2400 nM.

Consider `CC(C)N1CCC(NC2CCN(c3cccc(-c4cc5ccccc5[nH]4)c3)CC2)CC1`, for which the IC50 worked out at 130 nM.

With `CC(C)N1CCN(CCNC2CCN(c3cccc(-c4cc5ccc(F)cc5[nH]4)c3)CC2)CC1`, the IC50 was 540 nM.

On to `CC(C)[C@H]1CC[C@H](NC2CCN(c3cccc(-c4cc5cc(C#N)ccc5[nH]4)c3)CC2)CC1`, for which the IC50 was 6200 nM.

As for `CC(C)N1CCN(CCNC2CCN(c3cccc(-c4cc5cc(C(N)=O)ccc5[nH]4)c3)CC2)CC1`, the half-inhibitory concentration (IC50) was 87 nM.

For the molecule `c1ccc(CNC2CCN(c3cccc(-c4cc5ccccc5[nH]4)c3)CC2)nc1`, the concentration for half-maximal inhibition (IC50) was 1000 nM.

For the molecule `Fc1ccc2[nH]c(-c3cccc(N4CCC(NCCc5c[nH]c6ccccc56)CC4)c3)cc2c1`, the concentration for half-maximal inhibition (IC50) was found to be 11000 nM.

Consider `COc1ccc2[nH]c(-c3cccc(N4CCC(NCCN5CCN(C(C)C)CC5)CC4)c3)cc2c1`, for which the concentration for half-maximal inhibition (IC50) is 660 nM.

Regarding `CN1[C@@H]2CCC[C@H]1C[C@@H](NC1CCN(c3cccc(-c4cc5ccccc5[nH]4)c3)CC1)C2`, the IC50 was determined as 1300 nM.

Consider `NC(=O)CCNC1CCN(c2cccc(-c3cc4cc(F)ccc4[nH]3)c2)CC1`, for which the IC50 turned out to be 760 nM.

For `CC(C)N1CCC(NC2CCN(c3cccc(-c4cc5cc(Cl)ccc5[nH]4)c3)CC2)CC1`, the half-inhibitory concentration (IC50) was found to be 92 nM.

Consider `CN1CCN(C2(CNC3CCN(c4cccc(-c5cc6cc(F)ccc6[nH]5)c4)CC3)CCC2)CC1`, for which the IC50 is 15 nM.

Consider `Cc1ccc(N2CCC(NC3CCN(C(C)C)CC3)CC2)cc1-c1cc2ccccc2[nH]1`, for which the half-inhibitory concentration (IC50) turned out to be 500 nM.

For the molecule `CN(C)CCNC1CCN(c2cccc(-c3cc4ccccc4[nH]3)c2)CC1`, the half-maximal inhibitory concentration (IC50) came out at 570 nM.

For the molecule `CC(C)N1CCN(CCNC2CCN(c3cccc(-c4ccc5ccccc5c4)c3)CC2)CC1`, the half-inhibitory concentration (IC50) turned out to be 5100 nM.

For the molecule `CN1CCN(C(=O)CCNC2CCN(c3cccc(-c4cc5ccccc5[nH]4)c3)CC2)CC1`, the half-inhibitory concentration (IC50) is 290 nM.

`CC(C)N1CCN(C2(CNC3CCN(c4cccc(-c5cc6cc(F)ccc6[nH]5)c4)CC3)COC2)CC1`: the half-inhibitory concentration (IC50) came to 41 nM.

With `CC(C)N1CCN(CCNC2CCN(c3cccc(NC(=O)OCc4ccccc4)c3)CC2)CC1`, the 50% inhibitory concentration (IC50) was found to be 1700 nM.

For `CC(C)N1CCN(CCNC(=O)CC2CCN(c3cccc(-c4cc5ccccc5[nH]4)c3)CC2)CC1`, the half-inhibitory concentration (IC50) came out at 7340 nM.

In the case of `CC(C)N1CCN(CCOC2CCN(c3cccc(-c4cc5ccccc5[nH]4)c3)CC2)CC1`, the half-inhibitory concentration (IC50) was 12000 nM.

Consider `Cc1ccc(CNC2CCN(c3cccc(-c4cc5ccccc5[nH]4)c3)CC2)o1`, for which the 50% inhibitory concentration (IC50) turned out to be 890 nM.

With `CN1CCN(C2(CNC3CCN(c4cccc(-c5cc6cc(Cl)ccc6[nH]5)c4)CC3)CCC2)CC1`, the IC50 was determined as 110 nM.

For the molecule `CC(C)(C)OC(=O)N1CCCN(CCNC2CCN(c3cccc(-c4cc5ccccc5[nH]4)c3)CC2)CC1`, the IC50 stood at 1100 nM.

As for `CC(C)N1CCC(NC2CCN(c3cccc(-c4cc5cc(S(C)(=O)=O)ccc5[nH]4)c3)CC2)CC1`, the IC50 stood at 20000 nM.

As to `c1cc(-c2cc3ccccc3[nH]2)cc(N2CCC(NCCCN3CCOCC3)CC2)c1`, the IC50 is 800 nM.

For the molecule `c1cc(-c2cc3ccccc3[nH]2)cc(N2CCC(NCCN3CCNCC3)CC2)c1`, the IC50 was determined as 310 nM.

Consider `c1cc(-c2cc3ccccc3[nH]2)cc(N2CCC(NCCN3CCCC3)CC2)c1`, for which the IC50 is 880 nM.

Consider `N#Cc1ccc2[nH]c(-c3cccc(N4CCC(NCc5cccnc5)CC4)c3)cc2c1`, for which the IC50 worked out at 290 nM.

Consider `CN1CCN(C(=O)CCNC2CCN(c3cccc(-c4cc5cc(C#N)ccc5[nH]4)c3)CC2)CC1`, for which the IC50 was found to be 320 nM.

For the molecule `Cc1ccc(N2CCC(NC3CCN(C)CC3)CC2)cc1-c1cc2cc(F)ccc2[nH]1`, the concentration for half-maximal inhibition (IC50) is 82 nM.

Turning to `Cc1ccc(N2CCC(NCCN3CCN(C(C)C)CC3)CC2)cc1-c1cc2cc(C#N)ccc2[nH]1`, the IC50 was 86 nM.

With `Cc1ccc2[nH]c(-c3cccc(N4CCC(NCCN5CCN(C(C)C)CC5)CC4)c3)cc2c1`, the concentration for half-maximal inhibition (IC50) came to 200 nM.

With `CN1CCN(C2(CNC3CCN(c4cccc(-c5cc6ccccc6[nH]5)c4)CC3)CCCCC2)CC1`, the IC50 was 260 nM.

As for `CN1CCN(C2CCN(c3cccc(-c4cc5ccccc5[nH]4)c3)CC2)CC1`, the IC50 came to 13000 nM.

Regarding `Cc1ccc(N2CCC(NCC3(N4CCN(C(C)C)CC4)CCC3)CC2)cc1-c1cc2cc(C#N)ccc2[nH]1`, the IC50 was found to be 100 nM.

Consider `CC(C)N1CCC(NC2CCN(c3cccc(-c4cc5cc(S(=O)(=O)NC(C)(C)C)ccc5[nH]4)c3)CC2)CC1`, for which the IC50 came to 14000 nM.

As to `CC(C)N1CCCN(CCNC2CCN(c3cccc(-c4cc5ccccc5[nH]4)c3)CC2)CC1`, the IC50 was determined as 150 nM.
